Laboratory results from patent US6767741B1, “Metal binding compounds and their use in cell culture medium compositions” (Invitrogen Corporation, priority 1999, dated 2004).

What was measured:
Assay type in all cases: cell-based
[1] = test system: mammalian cells; assay: Replacement of transferrin as iron carrier in culture media (general statements); conditions: statement in words
Excerpt: By “compatible ingredients” is also meant those media nutrients which can be maintained together in solution and form a “stable” combination. […] Ingredients are also considered “stable” if degradation cannot be detected or when degradation occurs at a slower rate when compared to decomposition of the same ingredient in a 1×cell culture media formulation. For example, in 1×media formulations glutamine is known to degrade into pyrolidone carboxylic acid and ammonia. Glutamine in combination with divalent cations are considered “compatible ingredients” since little or no decomposition of the glutamine can be detected over time in solutions or combinations in which both glutamine and divalent cations are present. See U.S. Pat. No. 5,474,931.
The metal-binding compounds used in accordance with the present invention may be obtained commercially (e.g., from Sigma,St. Louis, Mo. and other well-known commercial sources), or may be prepared synthetically according to the guidance provided by the technical and patent publications referenced herein, the disclosures of which are incorporated herein by reference in their entireties.

[2] = test system: Sp2/0 cells; assay: Growth of Sp2/0 cells in transferrin-free CD Hybridoma medium with metal binding compounds; conditions: third passage, control = 5 μg/mL human holo-transferrin, duplicate cultures
Protocol: The ability of iron metal binding compounds to support cellular growth in the absence of transferrin was evaluated using Sp2/0 cells maintained in CD Hybridoma medium (Life Technologies, Rockville, Md.). Stock cultures containing 5 μg/mL human holo-transferrin were prepared in CD Hybridoma medium. For metal binding compound evaluation, Sp2/0 cells were established at an initial viable cell density of 0.5×10^5 cells/mL in stationary culture using 75 cm^2 tissue culture flasks in a final volume of 20 mL. All cultures were maintained at 37° C. in humidified air containing 8% CO2. To eliminate transferrin carry-over effects, cells were subcultured at the same seeding density at 4 day intervals for a total of three passages. Positive control cultures contained 5 μg/mL human holotransferrin while negative control cultures were established in the absence of either transferrin or metal binding compound. Metal binding compound stocks were prepared at 0.1M-0.2M in ddH2O and solubilized when necessary using 5N NaOH or HCl. Iron complexes were established using 0.2M metal binding compound and iron stocks mixed 1:1 (v/v) and incubated for 5-10 minutes at 22° C. All solutions containing metal binding compounds were filter sterilized using a 0.22 μm Millex-GV filter prior to addition to transferrin and serum-free media.
(§1) In most cases, metal binding compounds were evaluated either alone or in combination with ferric chloride or ferrous sulfate at 25 μM, 50 μM and 100 μM. Values in the table represent the mean percentage of control growth for duplicate cultures determined at the third passage.
(§2) When added to the medium formulation un-complexed, the metal binding compound is listed alone, when added as a complex with a transition metal, the source of the transition metal is listed with the metal binding compound.

[3] = test system: CHO cells; assay: Growth of CHO cells in transferrin-free CD CHO medium with metal binding compounds; conditions: third passage, control = 5 μg/mL human holo-transferrin, duplicate cultures
Protocol: The ability of metal binding compounds to support cellular growth in the absence of transferrin was evaluated using CHO cells maintained in CD CHO medium (Life Technologies, Rockville, Md., the formulation of which is described in WO 98/08934). Stock cultures containing 5 μg/mL human holo-transferrin were prepared in CD CHO medium. For metal binding compound evaluation, CHO cells were established in 125 mL shaker flasks at an initial viable seeding density of 1×10^5 cells/mL in a final volume of 20 mL. All cultures were maintained at 37° C. in humidified air containing 8% CO2. To eliminate transferrin carry-over effects, cells were subcultured at 4 day intervals for a total of three passages. Positive control cultures contained 5 μg/mL human holo-transferrin while negative control cultures were established in the absence of either transferrin or metal binding compound. Metal binding compound stocks were prepared at 0.1M-0.2M in ddH2O and solubilized when necessary using 5N NaOH or HCl. Iron complexes were established using 0.2M metal binding compound and iron stocks mixed 1:1 (v/v) and incubated for 5-10 minutes at 22° C. All solutions containing metal binding compounds were filter sterilized using a 0.22 μm Millex-GV filter prior to addition to transferrin and serum-free media.
as §1
as §2, with “The ability of various metal binding compounds to substitute for transferrin in the culture of CHO cells was determined. When” for “When”

[4] = test system: 293 cells; assay: Growth of 293 cells in transferrin-free 293 SFM with metal binding compounds; conditions: third passage, control = 5 μg/mL human holo-transferrin, duplicate cultures
Protocol: Semi-confluent adherent cultures of 293 Cells (ATCC, CRL 1573) are readily adapted to suspension culture. The cells are first detached with a solution of Trypsin-EDTA (0.05% Trypsin, 0.53 mM Na4EDTA), and then resuspended in conventional medium supplemented with 10% FBS to inhibit the trypsin. The resuspended cells are centrifuged at 200×g for five minutes. The cell pellet is resuspended in 293 SFM (available from Life Technologies, Rockville, Md.) the formulation of which is described in WO 98/08934 which is specifically incorporated herein by reference. Alternatively, the cells may be detached with Versene (Na4EDTA, 0.53 mM) and resuspended in 293 SFM.
The initial seeding density of the 293 cells after conversion to suspension culture is 1×10^6 cells/mL. The cells are shaken on a rotary shaker at 150 rpm in a 37° C. incubator equilibrated with 8% CO2-92% air. When the cells reach a density of 1.5×10^6 cells/mL they are diluted with 293 SFM to a density of 3.0×10^5 cells/mL. Because 293 cells have a tendency to aggregate, the cells may be vortexed vigorously for approximately 45 seconds to obtain a predominantly single cell suspension at the time of passaging and counting. After several passages in suspension culture, the maximum achievable density may be determined.
The ability of metal binding compounds to support cellular growth was evaluated using 293 cells maintained in 293 SFM (Life Technologies, Rockville, Md.) without transferrin or metal binding compound. Stock cultures containing 5 μg/mL human holo-transferrin were prepared in 293 SFM. For metal binding compound evaluation, 293 cells were established in 125 mL shaker flasks at an initial viable seeding density of 2×10^5 cells/mL in a final volume of 20 mL. All cultures were maintained at 37° C. in humidified air containing 8% CO2. To eliminate transferrin carry-over effects, cells were subcultured at 4 day intervals for a total of three passages. At each subculturing, cells were seeded at a density of 2×10^5 cells/mL. Positive control cultures contained 5 μg/mL human holo-transferrin while negative control cultures were established in the absence of either transferrin or metal binding compound. Metal binding compound stocks were prepared at 0.1M-0.2M in ddH2O and solubilized when necessary using 5N NaOH or HCl. Iron complexes were established using 0.2M metal binding compound and iron stocks mixed 1:1 (v/v) and incubated for 5-10 minutes at 22° C. All solutions containing metal binding compounds were filter sterilized using a 0.22 μm Millex-GV filter prior to addition to transferrin and serum-free media.
as §1, with “μM. When used in combination, the metal binding compounds were used in equimolar concentration with iron ions.” for “μM.”
as §2

Compound	ability to replace transferrin as iron carrier in culture media [1]	mean percentage of control growth ([2]; 25 μM)	mean percentage of control growth ([2]; 50 μM)	mean percentage of control growth ([2]; 100 μM)	mean percentage of control growth ([3]; 25 μM)	mean percentage of control growth ([3]; 50 μM)	mean percentage of control growth ([3]; 100 μM)	mean percentage of control growth ([4]; 25 μM)	mean percentage of control growth ([4]; 50 μM)	mean percentage of control growth ([4]; 100 μM)
OC[C@@H](O)[C@@H](O)[C@H](O)[C@@H](O)CO [sorbitol]	used successfully to replace transferrin	–	–	–	–	–	–	–	–	–
NC(=O)CCC(N)C(=O)O.[Cl][Fe]([Cl])[Cl] (centres unmarked) [Glutamine · Ferric Chloride]	can be substituted for transferrin	36%	55%	65%	–	–	–	–	–	–
Ferrous Gluconate · Ascorbic Acid Phosphate	–	92%	94%	93%	91%	61%	28%	86%	109%	101%
[Cl][Fe]([Cl])[Cl] [Ferric Chloride, reference compound]	–	55%	73%	74%	56%	85%	101%	87%	91%	109%
Cc1ncc(CO)c(C(=O)O)c1O.[Cl][Fe]([Cl])[Cl] [4-Pyridoxic Acid · Ferric Chloride]	–	40%	73%	76%	55%	63%	100%	109%	85%	99%
[Cl][Fe]([Cl])[Cl].[O-][n+]1cccc(O)c1 [3-Hydroxypyridine-N-Oxide · Ferric Chloride]	–	55%	54%	57%	77%	66%	101%	77%	72%	81%
